Experimental data published in US10584128B2, “Bicyclic dihydropyrimidine-carboxamide derivatives as Rho-Kinase inhibitors” (CHIESI FARMACEUTICI S.p.A., priority 2016, dated 2020).

Legend:
Rho kinase 1 = Rho kinase 1 (Homo sapiens, UniProt Q13464); assay: In vitro Rho kinase inhibitory activity assay (ADP-Glo kit, Myelin Basic Protein substrate); format: biochemical; conditions: 10 μM ATP, 25° C., read-out: ROCK1 inhibitory activity (Ki, range of activity)
How it was run: (§1)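 ADP-Glo luminescence assay at 25 °C in 40 mM Tris pH 7.5, 20 mM MgCl2, 0.1 mg/ml BSA, 50 μM DTT, with 2.5 μM myelin basic protein, 10 μM ATP and 1% DMSO. Compound and ROCK1 or ROCK2 were preincubated 30 min, then reacted 1 h. IC50 came from a sigmoidal fit; Ki via Cheng-Prusoff.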

Rho kinase 2 = Rho kinase 2 (Homo sapiens, UniProt O75116); assay: as above; format: biochemical; conditions: 10 μM ATP, 25° C., read-out: ROCK2 inhibitory activity (Ki, range of activity)
Chain of Rho kinase 2 (O75116 whole entry): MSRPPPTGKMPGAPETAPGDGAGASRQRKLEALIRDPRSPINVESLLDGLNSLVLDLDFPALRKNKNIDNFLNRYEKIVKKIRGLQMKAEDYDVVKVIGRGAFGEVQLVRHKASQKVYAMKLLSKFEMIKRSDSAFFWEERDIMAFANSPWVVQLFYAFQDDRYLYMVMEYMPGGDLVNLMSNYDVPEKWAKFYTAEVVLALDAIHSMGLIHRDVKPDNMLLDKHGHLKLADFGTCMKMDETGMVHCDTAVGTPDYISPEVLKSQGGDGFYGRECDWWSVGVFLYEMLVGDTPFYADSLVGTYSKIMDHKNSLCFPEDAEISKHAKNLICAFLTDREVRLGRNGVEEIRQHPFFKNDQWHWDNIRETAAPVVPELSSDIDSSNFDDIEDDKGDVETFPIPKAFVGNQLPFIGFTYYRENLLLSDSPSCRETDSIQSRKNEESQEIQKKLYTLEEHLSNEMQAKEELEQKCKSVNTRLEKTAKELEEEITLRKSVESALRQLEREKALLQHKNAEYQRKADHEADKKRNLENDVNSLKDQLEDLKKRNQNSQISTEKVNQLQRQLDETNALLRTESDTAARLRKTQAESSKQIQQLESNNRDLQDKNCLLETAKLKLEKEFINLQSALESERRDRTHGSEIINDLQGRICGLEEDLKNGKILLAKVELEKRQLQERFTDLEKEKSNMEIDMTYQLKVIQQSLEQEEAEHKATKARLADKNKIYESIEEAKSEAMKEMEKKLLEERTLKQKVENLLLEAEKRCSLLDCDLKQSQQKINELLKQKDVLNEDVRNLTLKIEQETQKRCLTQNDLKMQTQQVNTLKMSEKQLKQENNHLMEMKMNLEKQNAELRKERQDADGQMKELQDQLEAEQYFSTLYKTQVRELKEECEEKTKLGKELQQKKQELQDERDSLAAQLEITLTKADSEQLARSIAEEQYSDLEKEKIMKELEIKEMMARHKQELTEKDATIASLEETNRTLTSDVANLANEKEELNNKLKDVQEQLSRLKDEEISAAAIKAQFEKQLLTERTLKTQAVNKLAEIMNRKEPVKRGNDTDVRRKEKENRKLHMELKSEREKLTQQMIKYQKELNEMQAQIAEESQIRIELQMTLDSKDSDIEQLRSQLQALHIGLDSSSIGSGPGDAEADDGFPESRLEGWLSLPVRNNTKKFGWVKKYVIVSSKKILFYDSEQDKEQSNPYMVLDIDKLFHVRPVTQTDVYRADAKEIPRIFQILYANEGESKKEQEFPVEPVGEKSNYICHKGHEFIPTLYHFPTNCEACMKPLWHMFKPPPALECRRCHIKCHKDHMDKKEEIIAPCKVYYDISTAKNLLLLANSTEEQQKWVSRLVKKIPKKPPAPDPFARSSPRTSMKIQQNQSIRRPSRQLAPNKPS
How it was run: as §1

Chain of Rho kinase 1 (Q13464 whole entry): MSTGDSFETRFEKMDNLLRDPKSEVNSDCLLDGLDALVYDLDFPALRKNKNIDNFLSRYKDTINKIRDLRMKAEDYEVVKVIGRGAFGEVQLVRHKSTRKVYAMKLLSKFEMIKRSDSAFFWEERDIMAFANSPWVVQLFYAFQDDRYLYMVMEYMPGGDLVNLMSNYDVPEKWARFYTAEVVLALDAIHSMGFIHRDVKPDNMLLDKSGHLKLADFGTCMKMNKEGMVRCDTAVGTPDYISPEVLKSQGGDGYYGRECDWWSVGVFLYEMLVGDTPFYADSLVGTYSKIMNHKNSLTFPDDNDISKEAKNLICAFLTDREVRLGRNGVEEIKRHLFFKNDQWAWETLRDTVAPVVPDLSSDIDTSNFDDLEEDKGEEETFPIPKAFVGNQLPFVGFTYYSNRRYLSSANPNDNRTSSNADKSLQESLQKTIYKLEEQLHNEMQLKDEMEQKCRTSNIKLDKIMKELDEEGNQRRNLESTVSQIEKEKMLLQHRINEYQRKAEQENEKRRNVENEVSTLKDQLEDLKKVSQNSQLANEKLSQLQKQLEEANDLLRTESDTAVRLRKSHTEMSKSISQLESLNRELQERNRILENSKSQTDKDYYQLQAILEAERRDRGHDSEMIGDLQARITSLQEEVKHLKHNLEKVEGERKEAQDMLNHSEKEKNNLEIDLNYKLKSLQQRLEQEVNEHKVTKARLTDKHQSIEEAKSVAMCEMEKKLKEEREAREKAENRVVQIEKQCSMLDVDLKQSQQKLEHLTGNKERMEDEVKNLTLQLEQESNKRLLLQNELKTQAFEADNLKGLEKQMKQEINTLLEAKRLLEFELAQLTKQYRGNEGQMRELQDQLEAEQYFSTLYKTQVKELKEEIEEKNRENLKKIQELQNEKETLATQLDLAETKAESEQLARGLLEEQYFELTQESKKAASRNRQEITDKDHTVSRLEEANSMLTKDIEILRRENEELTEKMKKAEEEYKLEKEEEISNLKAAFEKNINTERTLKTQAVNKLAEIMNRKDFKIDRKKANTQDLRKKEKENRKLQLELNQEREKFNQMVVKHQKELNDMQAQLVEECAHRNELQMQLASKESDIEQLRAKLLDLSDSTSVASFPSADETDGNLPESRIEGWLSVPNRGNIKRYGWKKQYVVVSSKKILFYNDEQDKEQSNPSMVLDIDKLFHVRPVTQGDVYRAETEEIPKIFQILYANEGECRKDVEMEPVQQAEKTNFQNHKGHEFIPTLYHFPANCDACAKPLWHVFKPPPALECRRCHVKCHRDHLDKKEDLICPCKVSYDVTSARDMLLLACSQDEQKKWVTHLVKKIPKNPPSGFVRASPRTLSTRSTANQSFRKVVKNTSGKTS

Compound	Ki (Rho kinase 1)	Ki (Rho kinase 2)
CC1=C(C(=O)Nc2ccc3cnccc3c2)C(c2ccc(C(F)(F)F)c(F)c2)n2nc(CN3CCC4(CCN(C)CC4)C3)cc2N1 (stereo not drawn) [Example 103, 7-(3-fluoro-4-(trifluoromethyl)phenyl)-N-(isoquinolin-6-yl)-5-methyl-2-((8-methyl-2,8-diazaspiro[4.5]decan-2-yl)methyl)-4,7-dihydropyrazolo[1,5-a]pyrimidine-6-carboxamide]	< 50 nM	< 50 nM
CCOC(=O)c1cc2n(n1)C(c1ccc(C(F)(F)F)c(F)c1)C(C(=O)Nc1ccn3cnnc3c1)=C(C)N2 (stereo not drawn) [Example 15, ethyl 6-([1,2,4]triazolo[4,3-a]pyridin-7-ylcarbamoyl)-7-(3-fluoro-4-(trifluoromethyl)phenyl)-5-methyl-4,7-dihydropyrazolo[1,5-a]pyrimidine-2-carboxylate]	> 500 nM	> 500 nM
CC1=C(C(=O)Nc2ccc3[nH]ncc3c2)C(c2ccc(C(F)(F)F)cc2)n2nc(C#N)cc2N1 (stereo not drawn) [Example 34, 2-cyano-N-(1H-indazol-5-yl)-5-methyl-7-(4-(trifluoromethyl)phenyl)-4,7-dihydropyrazolo[1,5-a]pyrimidine-6-carboxamide]	< 50 nM	< 50 nM
CC1=C(C(=O)Nc2ccc3cnccc3c2)C(C2Cc3ccccc3C2)n2nc(CO)cc2N1 (single isomer, unassigned) [Example 60B, 7-(2,3-dihydro-1H-inden-2-yl)-2-(hydroxymethyl)-N-(isoquinolin-6-yl)-5-methyl-4,7-dihydropyrazolo[1,5-a]pyrimidine-6-carboxamide]	50 to 500 nM	50 to 500 nM
CC1=C(C(=O)Nc2ccc3[nH]ncc3c2)C(c2ccc(F)cc2)n2nnnc2N1 (single isomer, unassigned) [Example 23A, 7-(4-fluorophenyl)-N-(1H-indazol-5-yl)-5-methyl-4,7-dihydrotetrazolo[1,5-a]pyrimidine-6-carboxamide]	< 50 nM	< 50 nM
CC1=C(C(=O)Nc2ccc3cnccc3c2)C(c2ccc(C(F)(F)F)c(F)c2)n2nc(CN3CCCCC3)cc2N1 (single isomer, unassigned) [Example 97A, 7-(3-fluoro-4-(trifluoromethyl)phenyl)-N-(isoquinolin-6-yl)-5-methyl-2-(piperidin-1-ylmethyl)-4,7-dihydropyrazolo[1,5-a]pyrimidine-6-carboxamide]	50 to 500 nM	50 to 500 nM
CC1=C(C(=O)Nc2ccc3cnccc3c2)C(c2ccc(C(F)(F)F)c(F)c2)n2nc(CN3CCS(=O)(=O)CC3)cc2N1 (stereo not drawn) [Example 108, 2-((1,1-Dioxidothiomorpholino)methyl)-7-(3-fluoro-4-(trifluoromethyl)phenyl)-N-(isoquinolin-6-yl)-5-methyl-4,7-dihydropyrazolo[1,5-a]pyrimidine-6-carboxamide]	< 50 nM	< 50 nM
CC1=C(C(=O)Nc2ccc3cnccc3c2)C(c2ccc(C)cc2)n2nc(CO)cc2N1 (stereo not drawn) [Example 66, 2-(hydroxymethyl)-N-(isoquinolin-6-yl)-5-methyl-7-(p-tolyl)-4,7-dihydropyrazolo[1,5-a]pyrimidine-6-carboxamide]	< 50 nM	< 50 nM
CC1=C(C(=O)Nc2ccc3cnccc3c2)C(c2ccc(Cl)c(C(F)(F)F)c2)n2nc(CO)cc2N1 (stereo not drawn) [Example 47, 7-(4-chloro-3-(trifluoromethyl)phenyl)-2-(hydroxymethyl)-N-(isoquinolin-6-yl)-5-methyl-4,7-dihydropyrazolo[1,5-a]pyrimidine-6-carboxamide]	< 50 nM	< 50 nM
